From ChEMBL document CHEMBL5576089, “Discovery of Oxidized p-Terphenyls as Phosphodiesterase 4 Inhibitors from Marine-Derived Fungi” (J Nat Prod, 2024) come the findings set out here.

In data set [1] the test system is MRC5. The data set can be described thus: Anti-fibrotic activity in TGF-beta1-activated human MRC5 cells assessed as reduction in FN1 mRNA level at 10 uM incubated for 48 hrs by RT-qPCR analysis. Type of data set: functional, cell-based. In general terms: Quantitative PCR measures a nucleic acid by following its amplification.
For data set [2], the system named is MRC5. Kind of data set: Anti-fibrotic activity in TGF-beta1-activated human MRC5 cells assessed as reduction in COL1 mRNA level at 10 uM incubated for 48 hrs by RT-qPCR analysis. Type of data set: functional, cell-based.
Data set [3] concerns MRC5. The data set can be described thus: Anti-fibrotic activity in TGF-beta1-activated human MRC5 cells assessed as reduction in alpha-SMA mRNA level at 10 uM incubated for 48 hrs by RT-qPCR analysis. Type of data set: functional, cell-based.
The target of another data set is Phosphodiesterase 4 (Homo sapiens, UniProt P27815+Q08499+Q07343+Q08493). Kind of data set: Inhibition of PDE4 (unknown origin) using [3H]cAMP[…] as substrate incubated for 15 mins by phosphodiesterase scintillation proximity assay. It is filed as protein assay. A general note: In a scintillation proximity assay essentially only radioactivity close to the scintillant gives light.

Data set [4] relates to NIH3T3. Kind of data set: Cytotoxicity against mouse NIH3T3 cells assessed as reduction in cell viability incubated for 48 hrs. Type of data set: toxicity, cell-based. The following applies: nih3t3, 48 h.
The test system of data set [5] is NIH3T3. The data set can be described thus: Anti-fibrotic activity in TGF-beta1-induced mouse NIH3T3 cells assessed as reduction in fibronectin expression at 20 uM incubated for 48 hrs by Western blot analysis. It is filed as functional, cell-based.
Data set [6] concerns RAW264.7. The data set can be described thus: Cytotoxicity against mouse RAW264.7 cells assessed as reduction in cell viability at 10 to 160 uM incubated for 48 hrs by CCK8 assay. Type of data set: toxicity, cell-based. The following applies: raw264.7, 48 h, dose 10-160 µM.
Data set [7] concerns RAW264.7. Kind of data set: Antiinflammatory activity in LPS-induced mouse RAW264.7 cells assessed as reduction in IL-6 mRNA level at 10 to 20 uM preincubated with compound for 4 hrs followed by LPS stimulation and measured after 24 hrs by RT-qPCR analysis. The note with it: dose 10-20 µM, time 28.0 hrs. Type of data set: functional, cell-based.
The subject of data set [8] is RAW264.7. Kind of data set: Antiinflammatory activity in LPS-induced mouse RAW264.7 cells assessed as reduction in TNF-alpha mRNA level at 10 to 20 uM preincubated with compound for 4 hrs followed by LPS stimulation and measured after 24 hrs by RT-qPCR analysis. Type of data set: functional, cell-based. The note with it: dose 10-20 µM, time 28.0 hrs.
The subject of data set [9] is RAW264.7. Kind of data set: Antiinflammatory activity in LPS-induced mouse RAW264.7 cells assessed as reduction in IL-1beta mRNA level at 10 to 20 uM preincubated with compound for 4 hrs followed by LPS stimulation and measured after 24 hrs by RT-qPCR analysis. Type of data set: functional, cell-based. The note with it: dose 10-20 µM, time 28.0 hrs.
Data set [10] relates to MRC5. The data set can be described thus: Anti-fibrotic activity in TGF-beta1-activated human MRC5 cells assessed as reduction in FN1 mRNA level at 5 to 20 uM incubated for 48 hrs by RT-qPCR analysis. The note with it: dose 5-20 µM. It is filed as functional, cell-based.
Data set [11] has as its system MRC5. Kind of data set: Anti-fibrotic activity in TGF-beta1-activated human MRC5 cells assessed as reduction in COL-1 mRNA level at 5 to 20 uM incubated for 48 hrs by RT-qPCR analysis. Type of data set: functional, cell-based. The note with it: dose 5-20 µM.
The subject of data set [12] is MRC5. Kind of data set: Anti-fibrotic activity in TGF-beta1-activated human MRC5 cells assessed as reduction in alpha-SMA mRNA level at 5 to 20 uM incubated for 48 hrs by RT-qPCR analysis. Type of data set: functional, cell-based. The following applies: dose 5-20 µM.
The test system of data set [13] is MRC5. The data set can be described thus: Anti-fibrotic activity in TGF-beta1-activated human MRC5 cells assessed as reduction in FN1 protein expression incubated for 48 hrs by Western blot analysis. Type of data set: functional, cell-based. The note with it: dose 5-20 µM.
Data set [14] relates to MRC5. The data set can be described thus: Anti-fibrotic activity in TGF-beta1-activated human MRC5 cells assessed as reduction in COL1 protein expression incubated for 48 hrs by Western blot analysis. Type of data set: functional, cell-based. The note with it: dose 5-20 µM.
Data set [15] deals with MRC5. The data set can be described thus: Anti-fibrotic activity in TGF-beta1-activated human MRC5 cells assessed as reduction in alpha-SMA protein expression incubated for 48 hrs by Western blot analysis. It is filed as functional, cell-based. The following applies: dose 5-20 µM. In general terms: Immunoblotting shows a protein as a band on a membrane.
In data set [16] the test system is MRC5. Kind of data set: Anti-fibrotic activity in TGF-beta1-activated human MRC5 cells assessed as reduction in COL1 protein expression at 20 uM incubated for 48 hrs by DAPI staining based immunofluorescence microscopic analysis. Type of data set: functional, cell-based.
Data set [17] deals with MRC5. The data set can be described thus: Anti-fibrotic activity in TGF-beta1-activated human MRC5 cells assessed as reduction in alpha-SMA protein expression at 20 uM incubated for 48 hrs by DAPI staining based immunofluorescence microscopic analysis. Type of data set: functional, cell-based.

Activity calls are given as the source filed them. No cut-off for these calls is given here.

On to `Cc1ccc(=O)n(-c2ccccc2)c1`, for which the outcome in the data set with MRC5 [1], with MRC5 [2] and with MRC5 [3] was Active.
Usually IC50 stands for the midpoint of a concentration-inhibition curve. A high value points to weaker potency. Consider `COc1cc(-c2ccccc2)c(OC)c(O)c1-c1ccc(OCC=C(C)C)c(O)c1`, for which, at Phosphodiesterase 4, the IC50 stood at 3500 nM.
As to `COc1c(-c2ccc(O)cc2)cc(O)c(-c2ccccc2)c1O`, at Phosphodiesterase 4, the IC50 amounted to 16000 nM.
Same read-out and setting: next, `COc1ccc(-c2c(OC)cc(-c3ccc(O)c(CC=C(C)C)c3)c(OC)c2O)cc1OC`: 1800 nM; `COc1c(O)c(-c2ccccc2)c(O)c(OC)c1-c1ccc(O)cc1`: 620 nM; `COc1c(O)c(-c2ccccc2)c(O)c(OC)c1-c1ccccc1`: 400 nM.
In the case of `COc1cc(-c2ccc(O)c(CC=C(C)C)c2)c(OC)c(O)c1-c1ccc(OCC=C(C)C)c(O)c1`, the half-inhibitory concentration (IC50) against Phosphodiesterase 4 came to 3000 nM.
On the same count and under the same terms, the same measure for `COc1cc(-c2ccc(O)cc2)c(OC)c(O)c1-c1ccc(O)c(CC=C(C)C)c1` [PRENYLTERPHENYLLIN]: 4200 nM.
For the compound `COc1c(O)c(-c2ccccc2)c(OC(C)=O)c(OC)c1-c1ccccc1`, the 50% inhibitory concentration (IC50) against Phosphodiesterase 4 was determined as 1200 nM. In addition, the Activity entry in the data set with NIH3T3 [4] is “Non-Toxic”; in the data set with RAW264.7 [6], “Non-Toxic”; in the data set with MRC5 [13], “Dose-Dependent Effect”; in the data set with MRC5 [14] it was “Dose-Dependent Effect”; in the data set with MRC5 [15], “Dose-Dependent Effect”. Moreover, the outcome with NIH3T3 [5], in the data set on RAW264.7 [7], in the data set on RAW264.7 [8], in the data set with RAW264.7 [9], in the data set on MRC5 [10] and in the data set with MRC5 [11] was Active. For the same compound, the result in the data set on MRC5 [12], in the data set on MRC5 [16] and in the data set on MRC5 [17] was Active.
